Test results: patent US11578110B2, “Compounds for inducing tissue formation and uses thereof” (HISTIDE AG, priority 2015, dated 2023)
No end group written: not given here.

The sequences below were run on hMSCs (assay: STRO-1 stemness marker expression in hMSCs (immunostaining, ImageJ quantification)). Details: SEQ ID NO: 1 to 49 tested in combination with a bioactive carrier (titanium, ceramics, PEEK, hydrogel, etc.).
Assay type: cell-based, Human
Protocol: The cells were first fixed for 20 min with 4% paraformaldehyde/PBS at 4° C. After fixation, the cells were permeabilized in PBS containing 1% Triton X-100 for 15 min. Runx2, Osterix, Stro-1, Vinculin, Phalloidin, Osteopontin, Sox2, Sox9 antibodies were visualized by treating the cells with 1% (v/v) specific monoclonal antibodies for 1 hour at 37° C. Then the samples were incubated with Alexa fluor® 568 or 647 (F(ab′)2 fragment of IgG(H+L)) during 30 min at room temperature. The cell nuclei were counterstained in 20 ng/mL DAPI for 10 min at room temperature.
For this type of quantification the freeware image analysis ImageJ® software was used. The raw image was first converted to an 8-bit file, and then the unsharp mask feature was used (settings 1:0.2) to remove the image background (rolling ball radius 10). After smoothing, the resulting image, which appears similar to the original photomicrograph but with minimal background, was then converted to a binary image by setting a threshold. Threshold values were determined empirically by selecting a setting, which gave the most accurate binary image for a subset of randomly selected photomicrographs. The cell area was determined by manual delineation on raw fluorescent images. Total contact area and mean contact area per cell were calculated by “analyse particles” in ImageJ®. A minimum of 30 cells per condition were analyzed. Stro-1, CD-34+, and CD-105 expressions were determined using this procedure.
hMSCs were cultured on conventional cell culture plastic plates with or without the presence in the cell culture media of different GFR-binding compounds as defined hereins (SEQ ID NO: 50 to 104) in solution. […] This was probed by Stro-1 immunostaining after cell fixation as described in the Methods section. The quantification of Stro-1 positive contact numbers and areas was performed as described in the Methods section. A minimum of 30 cells per condition were analyzed.
RMSD values are always calculated for a GFR-binding peptide sequence exempt from any bioactive-carrier-affinity-containing group as defined herein (e.g. cysteine, WWFWG, GTPGP, etc. . . . ). When needed i.e. when attachment to a bioactive carrier is contemplated, the bioactive-carrier-affinity-containing group is then present in the GFR-binding compound when it is biologically tested. Using the method detailed in the description, the RMSD of 57 previously reported peptide sequences have been determined (Table 6) and correlated with the expression of STRO-1 after grafted on a PET surface via a procedure as already described above. […] One should note that it is commonly admitted that the expression of STRO-1 in a cell is indicative of a cell that is in a substantially non-differentiated state and the decrease of its expression of at least about 20% is indicative of a cell that has started a processes of differentiation but which may not result in the differentiation of the cell. A decrease of more than 50% would be indicative of the presence of a significant shift towards a differentiated state. A decrease of more than 70% would be indicative of the presence of a very important shift towards a differentiated state. A sustained decrease (e.g. for at least 96 h) of more than 50% or 70% would be indicative of the presence of an even more important shift towards a differentiated state.
Likewise, using the method detailed in the description, the RMSD of 87 GFR-binding peptide sequence representatives of the invention have been determined (Table 7) and correlated with the expression of STRO-1 after grafted on a PET surface via a procedure as already described above. SEQ ID NO: 1 to 49 were tested in combination with a bioactive carrier as defined above in the Examples Section (i.e. titanium, ceramics, PEEK, hydrogel, etc. . . . ), whereas SEQ ID NO: 1143 to 1180 were tested in solution.
GIPEPSSVPEKMSATSVLYY [SEQ ID NO: 7] gave an STRO-1 expression of 22%.
With GSAGPSSVPTKMSAISMLYL [SEQ ID NO: 1] the STRO-1 expression was 21%.
For GSAGPSSVPTKMSPISVLYK [SEQ ID NO: 8], the STRO-1 expression was 31%.
In the case of “GTPGPAAPASSSVPARLSAISMLYL (not fully specified) [SEQ ID NO: 35]”, the STRO-1 expression was 19%.
In the case of “GTPGPASSVPTKLSAISMLYL (GTPGPAXXVPTKLSAISMLYL; GFR-binding peptide; MOD_RES (7)..(8): Xaa is C or S) [SEQ ID NO: 26]”, the STRO-1 expression was 23%.
In the case of “GTPGPGSAGPSSTPTKMSAISMLYL (GTPGPGSAGPXXTPTKMSAISMLYL; GFR-binding peptide; MOD_RES (11)..(12): Xaa is C or S) [SEQ ID NO: 34]”, the STRO-1 expression was 26%.
Work on “GTPGPNDEGLESAPTGQNAISVLYF (GTPGPNDEGLEXAPTGQNAISVLYF; GFR-binding peptide; MOD_RES (12)..(12): Xaa is C or S) [SEQ ID NO: 31]” yielded an STRO-1 expression of 32%.
“GTPGPPSSVPTKLSPISVLYK (GTPGPPXXVPTKLSPISVLYK; GFR-binding peptide; MOD_RES (7)..(8): Xaa is C or S) [SEQ ID NO: 30]” was tested, and the STRO-1 expression was 26%.
For “GTPGPPTSVPTKLSPISVLYK (GFR-binding peptide) [SEQ ID NO: 29]”, the STRO-1 expression was 27%.
“GTPGPVPQELEPLTILYY (GFR-binding peptide) [SEQ ID NO: 24]” gave an STRO-1 expression of 16%.
Sequence “GTPGPVPTEESAISMLYL (GFR-binding peptide) [SEQ ID NO: 28]” has an STRO-1 expression of 22%.
With “GTPGPVPTELSPISVLYK (GFR-binding peptide) [SEQ ID NO: 25]” the STRO-1 expression was 17%.
With “GTPGPVPTGQSAISMLYL (GFR-binding peptide) [SEQ ID NO: 27]” the STRO-1 expression was 24%.
HVPKPSSAPTKLSAISMLYL [SEQ ID NO: 12] was tested, and the STRO-1 expression was 28%.
Work on HVPKPSSVPTKLSPISVLYK [SEQ ID NO: 16] yielded an STRO-1 expression of 23%.
HVTKPTSVPEKLSSLSILFF [SEQ ID NO: 9] gave an STRO-1 expression of 29%.
In the case of KIPKASSVPTELSATSVLYY [SEQ ID NO: 6], the STRO-1 expression was 25%.
With KVGKASSVPTKLEPLTILYY [SEQ ID NO: 13] the STRO-1 expression was 26%.
For KVGKASSVPTKLSAISMLYL [SEQ ID NO: 20], the STRO-1 expression was 19%.
KVGKASSVSQKLEPLTILYY [SEQ ID NO: 10] showed an STRO-1 expression of 32%.
NDEGLESAPTEENAISVLYF [SEQ ID NO: 4] was tested, and the STRO-1 expression was 22%.
Sequence NDEGLESAPTGQNAISVLYF [SEQ ID NO: 5] has an STRO-1 expression of 27%.

Same assay, conditions: SEQ ID NO: 1143 to 1180 tested in solution
Sequence “GIPEPSSAPVDMRPVQIRKI (GFR-binding peptide) [SEQ ID NO: 1180]” has an STRO-1 expression of 30%.
For “GIPEPSSAPVEEEPLTTLYY (GFR-binding peptide) [SEQ ID NO: 1174]”, the STRO-1 expression was 21%.
“GIPEPSSAPVGQEPLPMVYY (GFR-binding peptide) [SEQ ID NO: 1172]” gave an STRO-1 expression of 28%.
“GIPEPSSVSQEESSLSTLFF (GFR-binding peptide) [SEQ ID NO: 1156]” was tested, and the STRO-1 expression was 19%.
Sequence “GIPEPSSVSQELSATSMLYY (GFR-binding peptide) [SEQ ID NO: 1160]” has an STRO-1 expression of 22%.
With “KIPKASSSRVRLSSLSTLFF (GFR-binding peptide) [SEQ ID NO: 1157]” the STRO-1 expression was 20%.
With “KIPKASSTPTRLSPISMLFI (GFR-binding peptide) [SEQ ID NO: 1163]” the STRO-1 expression was 28%.
For “KIPKASSTQVGQSATSILYY (GFR-binding peptide) [SEQ ID NO: 1161]”, the STRO-1 expression was 27%.
For “KIPKASSTQVRLRPVQIRKI (GFR-binding peptide) [SEQ ID NO: 1153]”, the STRO-1 expression was 30%.
“KIPKASSTQVRLRSVKTAKV (GFR-binding peptide) [SEQ ID NO: 1178]” gave an STRO-1 expression of 35%.
“KIPKASSVPAQLEPLPIVYY (GFR-binding peptide) [SEQ ID NO: 1171]” was tested, and the STRO-1 expression was 28%.
With “KIPKASSVPTGGSNITVQIM (GFR-binding peptide) [SEQ ID NO: 1151]” the STRO-1 expression was 32%.
“KIPKASSVPTKMKPLSVLYV (GFR-binding peptide) [SEQ ID NO: 1168]” showed an STRO-1 expression of 21%.
“KIPKASSVSQKMEPLTMLYY (GFR-binding peptide) [SEQ ID NO: 1150]” was tested, and the STRO-1 expression was 20%.
“KIPKASSVSQQLEPISTLYL (GFR-binding peptide) [SEQ ID NO: 1165]” was tested, and the STRO-1 expression was 17%.

Same assay, conditions: grafted on a PET surface
Work on “HIRSTTSSYVSLKSNITNRTIQTPTYSYT (Previously reported sequence) [SEQ ID NO: 1092, reference compound]” yielded an STRO-1 expression of 98%.
“IKSPARHSAPTHQEPLP (Previously reported sequence) [SEQ ID NO: 1097, reference compound]” showed an STRO-1 expression of 98%.
“KGSEYEKLVVSGITQVYQSSLSWHGCKSCCEVQVXNLXILIRLYDVHYYN (not fully specified; X: residue not identified in the source; ends and bridges not checked) [SEQ ID NO: 1122, reference compound]” was tested, and the STRO-1 expression was 88%.
“KIPKPSSAPTELSAISMC (Previously reported sequence) [SEQ ID NO: 1129, reference compound]” was tested, and the STRO-1 expression was 78%.
“KIPKPSSAPTELSAISMLC (Previously reported sequence) [SEQ ID NO: 1132, reference compound]” was tested, and the STRO-1 expression was 82%.
“KIPKPSSAPTELSAISMLYC (Previously reported sequence) [SEQ ID NO: 1133, reference compound]” was tested, and the STRO-1 expression was 80%.
“KPCCAPTELSAISVLYFDDSSNVILKKYRNMVVRACGCR (Previously reported sequence) [SEQ ID NO: 1142, reference compound]” was tested, and the STRO-1 expression was 83%.
“KPCCAPTQLSAISVLYFDDSSNVILKKYRNMVVRACGCR (Previously reported sequence) [SEQ ID NO: 1141, reference compound]” gave an STRO-1 expression of 80%.
“LGIAAIIFLQQVPAAFSATSPPG (Previously reported sequence) [SEQ ID NO: 1113, reference compound]” showed an STRO-1 expression of 97%.
With “LMDLARMPSCLRGERAVPQDTTGYFTWSSNITPLNFIF (Previously reported sequence) [SEQ ID NO: 1093, reference compound]” the STRO-1 expression was 92%.
“LNEVLRFCGIQVPEGDEPLTY (Previously reported sequence) [SEQ ID NO: 1095, reference compound]” gave an STRO-1 expression of 99%.
For “LSLLAPPEPVWNHETSYGSDCHVPTNVNAISKMIDKSNHQTG (Previously reported sequence) [SEQ ID NO: 1125, reference compound]”, the STRO-1 expression was 93%.
With “MAAQDEWRDAITLTMGRDLKKVPQHLNAISVIDPVT (Previously reported sequence) [SEQ ID NO: 1124, reference compound]” the STRO-1 expression was 83%.
Work on “MALPQPRGSSLSKAPVVVAPCMALKRVNIRSIVFEVLKTMNQNCIHETPN (Previously reported sequence) [SEQ ID NO: 1123, reference compound]” yielded an STRO-1 expression of 82%.
In the case of “MQCRELVTQVTEEPISQTEDGEEQESTTTPRLKGQKKE (Previously reported sequence) [SEQ ID NO: 1104, reference compound]”, the STRO-1 expression was 85%.
Sequence “MRTESTPTTASAISYECLWSPPSNEAAKLHFDS (Previously reported sequence) [SEQ ID NO: 1137, reference compound]” has an STRO-1 expression of 94%.
“MSRVLFEPLTFLQTGSGLPDEKTLG (Previously reported sequence) [SEQ ID NO: 1096, reference compound]” was tested, and the STRO-1 expression was 94%.
